This is an account of results in US20180200339A1, “METHODS OF REDUCING CORNEAL ENDOTHELIAL CELL LOSS” (Massachusetts Eye and Ear Infirmary, priority 2013, published 2018).

Test [1] has as its system corneal endothelial cells. The test can be described thus: VIP treatment of mice after trigeminal axotomy: corneal endothelial cell density (immunofluorescence, ZO-1 staining). Conditions: daily intraperitoneal VIP 5 nM in 10 μL, day 14, versus saline. Type of test: in vivo, BALB/c mice. The procedure:
(§1) Six- to eight-week old male BALB/c mice (Charles River, Wilmington, Mass.) were used in these experiments. Trigeminal axotomy was performed by first anesthetizing the animals with a ketamine (100 mg/mL)/xylazine (20 mg/mL)/acepromazine (15 mg/mL) mixture. After anesthetization, small incision lateral canthotomy was performed, two tractional sutures were placed on the lid skin, and the conjunctival fornix were incised circumferentially around 90 degrees. The eye globe was rotated nasally by gently pushing the nasal fornix with blunt forceps, exposing the trigeminal nerve and minimizing intraoperative bleeding through mild elevation of the intraorbital pressure. The ophthalmic branches of the trigeminal nerve were cut at the posterior sclera close to the optic nerve with sharp forceps. After cutting the branches of the trigeminal nerve, the skin was sutured using 8-0 nylon. Tarsorrhaphy was performed to reduce the risk of infection and exposure keratitis in the mice. Finally, an antibiotic ointment (bacitracin-neomycin-polymyxin mixture) was applied to the sutured area and the treated eye in the mice. Fluxinin (0.25 mg /kg body weight) was administered every 12 hours for 24 hours by subcutaneous injection. […]
Corneal endothelial cells were counted using cell counter plug-ins with ImageJ software (NIH, Bethesda, Md.). […] The results are expressed as mean±SEM, and considered significant if p<0.05.

Test [2] relates to cornea. The test can be described thus: VIP treatment of mice after trigeminal axotomy: corneal thickness by AS-OCT. Type of test: in vivo, BALB/c mice. The conditions noted are these: daily intraperitoneal VIP 5 nM in 10 μL, day 14, AS-OCT, versus saline. The method, then: as §1, with “mice.” for “mice. Fluxinin (0.25 mg /kg body weight) was administered every 12 hours for 24 hours by subcutaneous injection.”
Normal and post-operative cornea were examined using anterior segment optical coherence tomography (AS-OCT, RTVue, Optoview, Inc., Fremont, Calif.) at 7, 14 and 21 days after the surgical procedure. […] The corneal thickness was measured using built-in software. […]

With vasoactive intestinal peptide [VIP], the “corneal endothelial cell density” value in test [1] is recorded as “didn't decrease”. In addition, the corneal thickness entry in test [2] was “remained within the normal ranged”.
